Assay results: patent US7348315B2, “Methods of treating heart failure with modified ATP, ADP and AMP compounds” (priority 1995, dated 2008)
Blank lines part the entries; values can stand above or below the compound they belong to.

What was measured:
[1] = tested on: cardiac ventricular myocytes; test: Contractile amplitude of cultured cardiac ventricular myocytes (optico-video motion detection); format: cell-based, chick; details: for ability to stimulate an increase in contractile amplitude: FIGS. 1a-1d; for desensitization of the positive inotropic response to ATP, ADPβS and UTP after pre-exposure: pre-exposure 100 μM, 60 minutes (2-methylthio ATP) or three hours (UTP); for maximal % increase in contractile amplitude: ventricular myocytes (chick embryo 14 days in ovo / adult rat), mean ± SE
From the text: […] Sen, L., Liang, B. T., Colucci, W. S., Smith, T. W., Circ. Res. 67:1182-1192 (1990), modified to include the use of a high-speed peristaltic pump (Masterflex from Cole-Palmer/Spectrum), choice of lots of collagenase, hyaluronidase and protease that give the highest proportion of rod-shaped myocytes, inclusion of bovine serum albumin containing various enzymes, and pre-plating with laminin-coated plates or glass coverslips (for contractility measurement) to eliminate damaged, rounded up myocytes. Specifically, hearts from Sprague-Dawley rats were perfused in a retrograde manner for 5 minutes in Krebs-Henseleit (KH) bicarbonate buffer containing 118 mM NaCl, 4.6 mM KCl, 1.2 mM MgSO4, 1.25 mM CaCl2, 1.2 mM KH2PO4, 25 mM NaHCO3, and 11 mM glucose, gassed with 95% O2/5% CO2/at pH 7.4 (37° C., and an osmolality of 287 mosm/liter). The perfusion buffer was changed to nominally Ca^2+-free KH buffer for 5 min to arrest spontaneous beating. The heart was then perfused with the Ca^2+-free KH buffer containing 0.05% collagenase (Worthington) and 0.03% hyaluronidase (Sigma Chem. Co., St. Louis, Mo.) for 20 min. After removing the atria and the great vessels, the ventricular tissue was finely minced in the same collagenase/hyaluronidase buffer described above except that trypsin (0.02 mg/ml, Sigma) and deoxyribonuclease (0.02 mg/ml, Sigma) was also added. The minced tissue was further incubated in this buffer at 37° C. with shaking to facilitate dissociation of individual ventricular myocytes. The dissociated cells containing some damaged cells were filtered and layered twice over a 6% bovine serum albumin gradient. The rod-shaped healthy heart cells sedimented more easily than the round damaged cells. After the second sedimentation through the 6% BSA gradient, the final pellet contains more than 90% rod-shaped heart cells.
Ventricular myocytes were cultured from chick embryos 14 days in ovo according to known procedures. Briefly, isolated ventricular myocytes from chick embryos 14 in ovo were prepared in calcium- and magnesium-free Hanks' balanced salt sodium (HBSS) containing 0.025% trypsin (GIBCO, Grand Island, N.Y.). After neutralization of trypsin medium containing horse serum and HBSS, cells were centrifuged and resuspended in culture medium containing 6% fetal bovine serum, 40% Medium 199 (GIBCO), 0.1% penicillin/streptomycin, and a salt solution. The final concentrations in the culture medium (in mmol/L) were Na 142, K 3.3, Mg 0.7, Ca 1.4, Cl 130, HCO3 16.4, and glucose 5.5. Cells were plated at a density of 400,000 cell per ml and cultivated in a humidified 5% CO2-95% […]
The cell isolation procedure was generally that of Kelly, R. A., Eid, H., Kramer, B. K., O'Neill, M., Liang, B. T., Reers, M., Smith, T. W., J. Clin. Invest. 86:1164-1171 (1990), […] Cells became confluent on day 3 in culture and contractility measurement was carried out on that day.
Measurement of contractile amplitude in cultured ventricular cells was carried out generally according to the methods of Xu, D., Kong, H., Liang, B. T., Circ. Res. 70:56-65 (1992), and Barry, W. H., and Smith, T. W., J. Physiol. (Lond) 325:243-260 (1982). […]

isolated mouse heart = test: Work-performing isolated mouse heart; details: 100 nM, vs basal; for increase in +dP/dt (cardiac muscle contractility) / increase in cardiac output (C.O.) / increase in −dP/dt (diastolic relaxation): P less than 0.05, paired t test
Description: perfusion in the isolated heart was carried out using the work-performing model described as follows: For the working heart model, a column of KHS buffer produced a constant hydrostatic pressure of 65 mmHg (for rat) or 55 mmHg (for mice). The opening of the pulmonary vein was connected via a PE-90 (for rat) or PE-50 (for mice) catheter to a reservoir of KHS buffer that maintained a “venous return” flow into the left atrium of about 12 mL/min (rat) or 5 mL/min (mice) under the resting condition. The venous return was maintained by a constant level of hydrostatic pressure (7-8 mm Hg) yielding a steady rate of venous return. The entering KHS buffer was then switched from retrograde to antegrade perfusion and produced a work-performing heart preparation. The perfusate exited the left ventricle through the aorta cannula, which was connected to the aortic column of KHS buffer with a hydrostatic pressure of 55 mmHg (for mice) or 65 mmHg (for rat). Aortic flow was the amount of perfusate exiting the aortic cannula measured in millimeters per minute. Coronary flow, in millimeters per minute, was collected via opening of the pulmonary artery. The sum of aortic flow and coronary flow was the cardiac output. A 23 gauge catheter was inserted into the left ventricle and its distal end is connected to a pressure transducer to record left ventricular pressures and ±dP/dt. The left ventricular developed pressure (LVDP) was the difference between LV systolic and diastolic pressure. A side port of the reservoir allowed direct infusion of beta-adrenergic agonist isoproterenol or P2X receptor agonist 2-[…] into the KHS buffer that entered the left ventricle via the left atrium, which then entered the coronary circulation following ejection of drug-containing perfusate into the aorta. The pressure recordings were channeled from amplifiers which had been precalibrated by a transducer simulator/calibrator (Ken Scientific Corp., Litchfield, Conn.). The signals were then digitized via a PCM-DAS 16S/330 interface board (Computer Boards, Inc. Mansfield, Mass.) which provided a high level of performance with analog input channels and digital channels. Data were analyzed by computer software (WorkBench for Windows+, Kent Scientific Corp.) designed for an IBM-compatible computer (Dell). […] Data acquisition, signal display (LV pressures, ±dP/dt, heart rate), and data analysis programs were run concurrently from the hard drive of the computer. Data points under each basal condition and during infusion of each drug concentration were summarized as means±SE, and the statistical differences were analyzed by one-way ANOVA with post-test comparison and […] and ISO (isoproterenol) were present at 100 nM. Basal represented the baseline values obtained before infusion with the agonists. Date were the means and standard errors of those obtained in 5 rats.

working rat heart = test: Intact working rat heart; details: FIG. 11
Description: For the working heart model, a column of KHS buffer produced a constant hydrostatic pressure of 65 mmHg (for rat) or 55 mmHg (for mice). The opening of the pulmonary vein was connected via a PE-90 (for rat) or PE-50 (for mice) catheter to a reservoir of KHS buffer that maintained a “venous return” flow into the left atrium of about 12 mL/min (rat) or 5 mL/min (mice) under the resting condition. The venous return was maintained by a constant level of hydrostatic pressure (7-8 mm Hg) yielding a steady rate of venous return. The entering KHS buffer was then switched from retrograde to antegrade perfusion and produced a work-performing heart preparation. […] Aortic flow was the amount of perfusate exiting the aortic cannula measured in […]. […]
The pressure recordings were channeled from amplifiers which had been precalibrated by a transducer simulator/calibrator (Ken Scientific Corp., Litchfield, Conn.). […] Data were analyzed by computer software (WorkBench for Windows+, Kent Scientific Corp.) designed for an IBM-compatible computer (Dell). […] Data points under each basal condition and during infusion of each drug concentration were summarized as means±SE, and the statistical differences were analyzed by one-way ANOVA with post-test comparison and t test.

Compound: O=c1ccn([C@@H]2O[C@H](COP(=O)(O)OP(=O)(O)OP(=O)(O)O)[C@@H](O)[C@H]2O)c(=O)[nH]1 [UTP]
ability to stimulate an increase in contractile amplitude [1]: not capable of producing the same effect | desensitization of the positive inotropic response to ATP, ADPβS and UTP after pre-exposure [1]: failed to cause such desensitization | maximal % increase in contractile amplitude [1]: 22±4%

Compound: CSc1nc(N)c2ncn([C@@H]3O[C@H](COP(=O)(O)OP(=O)(O)O)[C@@H](O)[C@H]3O)c2n1 [2-methylthio ADP]
effect on basal contractile amplitude (positive inotropic effect) ([1]; myocytes paced at 2 HZ, FIG. 7): pronounced positive inotropic effect

effect on contractile amplitude in presence of adenosine receptor antagonist 8-SPT ([1]; App(NH)p plus 8-sulfophenyltheophylline, FIG. 8): not mediated via the adenosine receptor
Compound: Nc1ncnc2c1ncn2[C@@H]1O[C@H](COP(=O)(O)OP(=O)(O)NP(=O)(O)O)[C@@H](O)[C@H]1O [App(NH)p, adenylyl imidodiphospate]
effect on basal contractile amplitude (positive inotropic effect) ([1]; FIG. 8): pronounced positive inotropic effect

Compound: Nc1ncnc2c1ncn2[C@@H]1O[C@H](COP(=O)(O)OP(=O)(O)O)[C@@H](O)[C@H]1O [ADP]
maximal % increase in contractile amplitude [1]: 47.7±10%

Compound: adenylyl 5′phosphoramidate
effect on basal contractile amplitude (positive inotropic effect) ([1]; myocytes paced at 2 HZ, FIG. 7): pronounced positive inotropic effect

Compound: CSc1nc(N)c2ncn([C@@H]3O[C@H](COP(=O)(O)OP(=O)(O)OP(=O)(O)O)[C@@H](O)[C@H]3O)c2n1 [2-methylthio ATP]
heart rate (H.R.) (isolated mouse heart): did not change the heart rate | increase in +dP/dt (cardiac muscle contractility) (isolated mouse heart): statistically significant | increase in cardiac output (C.O.) (isolated mouse heart): statistically significant | increase in −dP/dt (diastolic relaxation) (isolated mouse heart): statistically significant | ability to stimulate an increase in contractile amplitude [1]: capable of stimulating an increase in contractile amplitude | desensitization of the positive inotropic response to ATP, ADPβS and UTP after pre-exposure [1]: desensitized the positive inotropic response | maximal % increase in contractile amplitude [1]: 54±7% | +dP/dt (index of muscle contractility) (working rat heart): increases | −dP/dt (index of diastolic relaxation) (working rat heart): increases

Compound: Nc1ncnc2c1ncn2[C@@H]1O[C@H](COP(=O)(O)CP(=O)(O)OP(=O)(O)O)[C@@H](O)[C@H]1O [α,β-methylene ATP]
ability to stimulate an increase in contractile amplitude [1]: not capable of producing the same effect | maximal % increase in contractile amplitude [1]: −13±5%

Compound: Nc1ncnc2c1ncn2[C@@H]1O[C@H](COP(N)(=O)O)[C@@H](O)[C@H]1O [adenosine 5′monophosphoramidate]
effect on basal contractile amplitude (positive inotropic effect) ([1]; myocytes paced at 2 HZ, FIG. 7): pronounced positive inotropic effect

Compound: Nc1ncnc2c1ncn2[C@@H]1O[C@H](COP(=O)(O)OP(=O)(O)OP(=O)(O)O)[C@@H](O)[C@H]1O [ATP]
maximal % increase in contractile amplitude [1]: 89.7±9%

Compound: Nc1ncnc2c1ncn2[C@@H]1O[C@H](COP(=O)(O)O)[C@@H](O)[C@H]1O [AMP]
maximal % increase in contractile amplitude [1]: 9.6±4%

Compound: Nc1ncnc2c1ncn2[C@@H]1O[C@H](COP(=O)(O)OP(O)(O)=S)[C@@H](O)[C@H]1O [ADPβS]
maximal % increase in contractile amplitude [1]: 76±15%

Compound: CC(C)NCC(O)c1ccc(O)c(O)c1 (stereo not shown) [isoproterenol]
heart rate (H.R.) (isolated mouse heart): significant stimulation | increase in +dP/dt (cardiac muscle contractility) (isolated mouse heart): statistically significant | increase in cardiac output (C.O.) (isolated mouse heart): statistically significant | increase in −dP/dt (diastolic relaxation) (isolated mouse heart): statistically significant

Compound: Nc1ncnc2c1ncn2[C@@H]1O[C@H](CO)[C@@H](O)[C@H]1O [adenosine]
maximal % increase in contractile amplitude [1]: 15±4%
